Patent publication US20220161456A1, “S[…] PRESERVATIVE COMPOSITION COMPRISING POLYMERIC BETAINE AND CARBAMATE” (Troy Corporation, priority 2019, published 2022)

What was measured:
Format in all cases: cell-based
[1] = test system: Aureobasidium pullulans (ATCC #9348); assay: ASTM D4445-10 fungal growth on dip-treated Radiata pine specimens; conditions: rating 0 (No Growth) to 5 (Complete Growth), one month, 28° C.
Description: (§1) Radiata pine lumber was machined to specimens with size of 7 mm by 20 mm in cross section and 70 mm long. Solutions prepared as described above were used to treat the machined Radiata pine specimens. The treatment was carried out in a 600 mL beaker. Two unused test pieces were placed on the bottom of the beaker, and the specimens, four in a layer, were placed on the previous layers until all the treatment replicates were included. The specimens were held down with a finger bearing down on a watch glass and submerged in treating solution for 15 seconds. After 15 seconds, the beaker was drained but with specimens still held down, and then was tightly covered with a piece of plastic sheet to prevent drying and was stored overnight. Similarly, untreated control specimens were treated with water.
(§2) One day after treatment, duplicate wood specimens from the same treatment group were tested according to ASTM D4445-10 methodology. The wood specimens were checked for inhibition against sapstain fungi and molds Trichoderma pseudokoningii (ATCC #26801), Aureobasidium pullulans (ATCC #9348), and a mixture of Aspergillus niger (ATCC #6275) and Penicillium funiculosum (ATCC #11797). This method is described below:
(§3) (1) Placed duplicate wood specimens on top of polyester mesh and laid on a stack of four (4) filter paper squares (approximately 2 inches by 2.5 inches) presoaked in 5 mL sterile DI water.
(§4) (2) Prepared fungal mixture from freshly grown slants of each test organism.
(§5) (3) Added 2 mL of DI water and 0.1% Tween 20 to the slant and inverted to mix.
(§6) (4) Poured the concentrate into a total volume of 16 mL.
(§7) (5) Enumerated the stock via hemocytometer and adjusted to […] with additional DI water.
(§8) (6) Inoculated wood specimens via applying 0.25 mL of one of the three separate fungal suspensions to the top of the wood and distributing evenly on the surface with an L-spreader.
(§9) (7) Placed inoculated wood specimens in a humidity chamber for one month at 95% or larger relative humidity and 28° C.
(§10) (8) Rated wood specimens with a rating from “0” (No Growth) to “5” (Complete Growth).
as §1, with “treat” for “treat the”
as §2, with “D4445-10(2019)” for “D4445-10”, “This method is described below:” left out

[2] = test system: Trichoderma pseudokoningii (ATCC #26801); assay: as above; conditions: rating 0 (No Growth) to 5 (Complete Growth), one month, 28° C.
Description: as §1, §2, §3, §4, §5, §6, §7, §8, §9, §10
as §1, with “treat” for “treat the”
as §2, with “D4445-10(2019)” for “D4445-10”, “This method is described below:” left out

[3] = test system: mixture of Aspergillus niger (ATCC #6275) and Penicillium funiculosum (ATCC #11797); assay: as above; conditions: rating 0 (No Growth) to 5 (Complete Growth), one month, 28° C.
Description: as §1, §2, §3, §4, §5, §6, §7, §8, §9, §10
as §1, with “treat” for “treat the”
as §2, with “D4445-10(2019)” for “D4445-10”, “This method is described below:” left out

[4] = test system: Trichoderma pseudokoningii (ATCC #26801), Aureobasidium pullulans (ATCC #9348), and a mixture of Aspergillus niger (ATCC #6275) and Penicillium funiculosum …; assay: ASTM D4445-10 cumulative fungal growth of all three examined organisms and Synergy Index; conditions: for Σ Fungal Growth: cumulative score of the three sets of fungi; for % of Water-Only Control: Σ fungal growth normalized to water-only control
Description: as §1, §2, §3, §4, §5, §6, §7, §8, §9, §10
In order to show more directly the possible synergy in the invention, the results are presented by applying the Synergy Index (S.I.), which is analyzed using the following equation:
FGA=Cumulative fungal growth scores of all three examined organisms of compound […], acting alone
FGA′=Cumulative fungal growth scores of all three examined organisms of compound […], in the mixture
FGB=Cumulative fungal growth scores of all three examined organisms of compound […], acting alone
FGB′=Cumulative fungal growth scores of all three examined organisms of compound […], in the mixture
When SI is greater than 1, antagonism is indicated. […] When SI equals to 1, the action of biocides is additive.
as §1, with “treat” for “treat the”
as §2, with “D4445-10(2019)” for “D4445-10”, “This method is described below:” left out

[5] = 2400 ppm treatment solution, Example 2, eight replicates
[6] = 2400 ppm treatment solution, Example 3, ten replicates
[7] = 4800 ppm treatment solution, Example 2, eight replicates
[8] = 2400 ppm treatment solution, Example 2
[9] = 2400 ppm treatment solution, Example 3
[10] = 4800 ppm treatment solution, Example 2

Compound: CCCCNC(=O)OCC#CI [IPBC, 3-iodo-2-propynyl butyl carbamate]
- Average Scoring A.p. [1, 5]: 0.0
- Average Scoring A.p. [1, 6]: 0
- Average Scoring A.p. [1, 7]: 0.0
- Average Scoring T.p. [2, 5]: 2.6
- Average Scoring T.p. [2, 6]: 1.7
- Average Scoring T.p. [2, 7]: 2.8
- Average Scoring A.n. + P.f. [3, 5]: 0.0
- Average Scoring A.n. + P.f. [3, 6]: 2.1
- Average Scoring A.n. + P.f. [3, 7]: 0.0
- Σ Fungal Growth [4, 8]: 2.6
- % of Water-Only Control [4, 8]: 18.9%
- Σ Fungal Growth [4, 9]: 3.8
- % of Water-Only Control [4, 9]: 29.23%
- Σ Fungal Growth [4, 10]: 2.8
- % of Water-Only Control [4, 10]: 19.8%

Compound: didecyl bis(hydroxyethyl) ammonium borate [DPAB]
- Average Scoring A.p. [1, 5]: 3.3
- Average Scoring A.p. [1, 6]: 3.6
- Average Scoring A.p. [1, 7]: 0.8
- Average Scoring T.p. [2, 5]: 2.5
- Average Scoring T.p. [2, 6]: 2
- Average Scoring T.p. [2, 7]: 2.0
- Average Scoring A.n. + P.f. [3, 5]: 5.0
- Average Scoring A.n. + P.f. [3, 6]: 2
- Average Scoring A.n. + P.f. [3, 7]: 4.9
- Σ Fungal Growth [4, 8]: 10.8
- % of Water-Only Control [4, 8]: 77.5%
- Σ Fungal Growth [4, 9]: 7.6
- % of Water-Only Control [4, 9]: 58.46%
- Σ Fungal Growth [4, 10]: 7.6
- % of Water-Only Control [4, 10]: 55.0%
